Experimental data published in article PMC11798738, “Targeting ASK1 by CS17919 alleviates kidney‐ and liver‐related diseases in murine models” (Animal Models and Experimental Medicine, 2024).
pIC50: −log10 of the molar value. “Also recorded” adds a separate entry of the source. Where two headings read alike, the source gives them in different places. Marks after values point to notes of the source that are not given here.

Tests used:
NASH mouse model [1] = assay: CCL4- and HFD-induced NASH mouse model; format: in vivo, C57BL/6J mice; conditions: CS17919 20 mg/kg
Experimental: 41 C57BL/6J mice, male, 6–8 weeks of age, were purchased from Chengdu Dossy Experimental Animal Co. (Chengdu, China), 9 of which were assigned in the control group and fed a chow diet. The other 32 mice were fed a HFD (D12429, Research diet, USA). After 8 weeks of feeding, these mice with HFD were subcutaneously injected with CCL4 (0.1 mL/kg) twice a week. These mice were then randomly subdivided into 4 groups according to serum ALT and AST at week 12: Model (n = 8), CS17919 (n = 8), CS27109 (n = 8), and Combination (n = 8). Both the control and model groups were given the solvent mentioned above, administered orally twice a day, while CS17919 was administered twice a day by gavage at a dose of 20 mg/kg and CS27109 was administered twice a day by gavage at a dose of 10 mg/kg for 4 weeks. The body weight of each mouse was measured every 3 days during the drug intervention. All animals were fasted overnight after the last drug administration and blood was collected to isolate serum for biochemical tests including AST, ALT, TG, TC, HDL‐c, and LDL‐c. The liver of each mouse was removed, the right lobe of which was fixed in 10% formalin solution for pathological study.
H&E staining was applied to determine scores for liver steatosis, ballooning and inflammation in the NASH model. Thin 4 μm paraffin sections of each sample were used to assess liver histology, following a standard protocol. Paraffin sections were deparaffinized and placed in Hematoxylin staining solution for 3–8 min before using tap water to elute excess Hematoxylin. Sections were stained in Eosin stain for about 1–3 min and rinsed with tap water. Finally, the slices were dehydrated and sealed. Score ranges were 0–3 for liver steatosis, 0–2 for ballooning and 0–12 for inflammation (which included scores of 0–3 for portal inflammation, 0–3 for lobular inflammation, 0–3 for piecemeal necrosis, and 0–3 for bridging necrosis).
Sirius Red staining was applied to determine liver fibrosis in the NASH model. Thin 4 μm paraffin sections of each sample were used in this study followed the standard procedure. Sections were first stained with Hematoxylin for 5–10 min, then washed and stained with Sirius Red stain about 15–30 min. Finally, the sections were rinsed and sealed. Image‐Pro Plus 6.0 was used for analyzing the area of liver fibrosis and the percentage of the fibrosis area in each section was calculated.

CYP 2B6 = CYP 2B6 (Homo sapiens, UniProt P20813); assay: CYP inhibition in vitro; format: in vitro ADME
CYP 2C8 = CYP 2C8 (Homo sapiens, UniProt P10632); assay: CYP inhibition in vitro; format: in vitro ADME
CYP 2C9 = CYP 2C9 (Homo sapiens, UniProt P11712); assay: CYP inhibition in vitro; format: in vitro ADME
CYP 2C19 = CYP 2C19 (Homo sapiens, UniProt P33261); assay: CYP inhibition in vitro; format: in vitro ADME
CYP 2D6 = CYP 2D6 (Homo sapiens, UniProt P10635); assay: CYP inhibition in vitro; format: in vitro ADME
[2] = Metabolic stability in liver microsomes; format: in vitro ADME; conditions: Human
[3] = Metabolic stability in liver microsomes; format: in vitro ADME; conditions: Rat
[4] = Metabolic stability in liver microsomes; format: in vitro ADME; conditions: Mouse
CYP 1A2 = CYP 1A2 (Homo sapiens, UniProt P05177)
CYP3A4 [5] = molecular target: T1, CYP3A4 (Homo sapiens, UniProt P08684)
NASH mouse model [6] = assay: CCL4- and HFD-induced NASH mouse model; format: in vivo, C57BL/6J mice; conditions: data not shown; model group 5/9
CYP3A4 [7] = molecular target: T1, CYP3A4; assay: CYP inhibition in vitro; conditions: read-out: CYP3A4 (Midazolam) inhibition IC50; substrate Midazolam
L02 cells = assay: Cell protection in PA-stimulated L02 cells (Cell Titer-Glo viability); format: cell-based, human; conditions: 50 μmol/L PA, 72 h
Experimental: L02 cells were cultured in DMEM medium (Gibco, 11 965 092, Carlsbad, CA, USA) supplemented with 20% FBS and 1× penicillin–streptomycin. L02 cells were inoculated in two 96‐well plates at 1E4 cells/well (200 μL). The following day, the cells were stimulated with 50 μmol/L PA (dissolved in ethanol to make a 200× stock solution and then added to the medium) and simultaneously incubated with different concentrations of CS17919 and GS‐4997 (CS17919 and GS‐4997 stock solutions were added to the well plates to reach a final concentration of 10–0.3 μmol/L). After 72 h of incubation, the original medium was removed, followed by the addition of 100 μL of new DMEM medium and 60 μL of Cell Titer‐Glo reagent per well. The cells were incubated for 5 min in the dark, and then transferred to a black permeable plate for detection using an enzyme plate reader (Tecan spark, Grödig, Austria).

MRC‐5 = assay: MTS cytotoxicity assay, MRC-5; format: cell-based, human; conditions: 72 h
Experimental: (§1) Human embryonic kidney cells (HEK‐293A), human hepatocellular carcinoma cells (HUH7), human embryonic liver diploid cells (CCC‐HEL‐1) and human embryonic lung cells (MRC‐5) were selected for the cytotoxicity study of both drugs, using the MTS assay protocol. Cells were cultured at 37°C with 5% CO2 using an appropriate medium. […] After 72 h of incubation, 30 μL of MTS solution was added to each well, and the cells were then incubated for 2–4 h in the dark. The absorbance value of each well at 490 nm was measured using an enzymatic plate reader and the IC50 for each drug and each cell line was calculated. Cell viability and cytoxicity experiments were repeated three times.

CCC‐HEL‐1 = assay: MTS cytotoxicity assay, CCC-HEL-1; format: cell-based, human; conditions: 72 h
Experimental: as §1

UUO mouse model = UUO mouse model of kidney injury and fibrosis; format: in vivo, C57BL/6J mice; conditions: CS17919 10 and 60 mg/kg, GS-4997 30 mg/kg, gavage twice daily, 11 days
Experimental: 55 C57BL/6J mice, male, 6–8 weeks old were purchased from Chengdu Pharmachem Biotechnology Co. (Chengdu, China) and randomly divided into 5 groups according to their body weight: Sham (n = 10), Model (n = 15), CS17919L (10 mg/kg, n = 10), CS17919H (60 mg/kg, n = 10), and GS‐4997 (30 mg/kg, n = 10). The mice were anesthetized and fixed on the operating table, and the abdominal cortex and muscles were cut in the middle of the right side of the abdomen, and the ureter was searched for along the renal hilum. The ureter was separated using a glass split‐needle and ligated at the opening of the renal pelvis and the upper 1/3 of the ureter, and the ureter was cut between the two ligatures. Finally, the muscle and skin were closed with consecutive sutures, and animals were kept under observation until they awoke. Both the Sham and the Model group received solvent (0.2% CMC‐Na + 0.1% Tween‐80) orally twice daily. CS17919 and GS‐4997 were administered by gavage twice daily at the corresponding doses for 11 days. All treatments were started one day before surgical operation. All mice were sacrificed one day after administration with overnight fasting. Blood was collected, and serum was isolated for the analysis of urea nitrogen and creatinine. The kidney of each mouse was removed, weighed and fixed in 10% formalin solution for pathological study.
Masson staining was applied to determine kidney fibrosis in the UUO model. Thin 4 μm paraffin sections of each sample were used in this study, which followed the standard procedure. The sections were stained with Hematoxylin staining solution for 5–10 min and then washed, followed by staining with Ponceau S‐acid fuchsin stain for around 5–10 min. The sections were treated with 1% phosphomolybdic acid and Aniline Blue solution, and finally dehydrated stepwise in alcohol and sealed. VIS7.0 software was used to analyze the area of kidney fibrosis and the percentage of the fibrosis area in the scanning area was calculated.

NASH [8] = system: NASH; design: method as in PMID 32147362; conditions: cited from earlier work
diabetic kidney disease = system: diabetic kidney disease; design: method as in PMID 25531162; conditions: cited from earlier work
[9] = system: 5/6 nephrectomy (5/6 Nx) rat model; design: method as in PMID 35919527; conditions: GS-4997 alone; cited from earlier work
UUO model = system: UUO model; design: method as in PMID 37310976; conditions: cited from earlier work
DKD = system: DKD; design: method as in PMID 30526503, PMID 26180085, PMID 30024858; conditions: cited from earlier work
NASH [10] = system: NASH; design: method as in PMID 28218919, PMID 31996485; conditions: cited from earlier work
[11] = 4 weeks, CS27109 10 mg/kg twice a day
[12] = serum after 4 weeks, CS27109 10 mg/kg, gavage twice a day, mean ± SD

T1 sequence (P08684 whole entry): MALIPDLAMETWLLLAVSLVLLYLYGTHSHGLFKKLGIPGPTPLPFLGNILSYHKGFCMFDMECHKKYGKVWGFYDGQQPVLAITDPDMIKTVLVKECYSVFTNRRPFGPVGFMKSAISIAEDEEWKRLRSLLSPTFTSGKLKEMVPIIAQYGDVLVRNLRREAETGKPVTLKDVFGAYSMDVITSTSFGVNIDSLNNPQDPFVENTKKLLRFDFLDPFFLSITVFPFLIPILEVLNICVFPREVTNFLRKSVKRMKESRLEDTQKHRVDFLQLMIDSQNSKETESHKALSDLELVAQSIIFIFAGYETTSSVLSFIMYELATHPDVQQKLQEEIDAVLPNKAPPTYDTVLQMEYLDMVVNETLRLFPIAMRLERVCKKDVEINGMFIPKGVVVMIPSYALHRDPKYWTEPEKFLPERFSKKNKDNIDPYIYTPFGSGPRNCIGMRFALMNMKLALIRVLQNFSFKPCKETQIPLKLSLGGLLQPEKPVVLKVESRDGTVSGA
CYP 2C8, sequence (P10632 whole entry): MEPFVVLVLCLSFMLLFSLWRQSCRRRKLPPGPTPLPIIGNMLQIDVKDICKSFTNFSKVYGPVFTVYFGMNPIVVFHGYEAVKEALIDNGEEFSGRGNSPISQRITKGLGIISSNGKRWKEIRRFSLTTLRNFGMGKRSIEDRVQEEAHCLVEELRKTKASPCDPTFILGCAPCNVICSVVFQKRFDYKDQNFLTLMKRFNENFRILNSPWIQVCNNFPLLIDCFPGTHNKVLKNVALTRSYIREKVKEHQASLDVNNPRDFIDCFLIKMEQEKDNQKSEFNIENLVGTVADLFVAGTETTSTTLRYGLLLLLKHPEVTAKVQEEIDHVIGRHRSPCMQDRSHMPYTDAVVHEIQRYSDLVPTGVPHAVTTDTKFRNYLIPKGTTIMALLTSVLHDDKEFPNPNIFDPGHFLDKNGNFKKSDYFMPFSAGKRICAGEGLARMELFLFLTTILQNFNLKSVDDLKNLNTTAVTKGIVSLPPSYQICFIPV
CYP 2C19, sequence (P33261 whole entry): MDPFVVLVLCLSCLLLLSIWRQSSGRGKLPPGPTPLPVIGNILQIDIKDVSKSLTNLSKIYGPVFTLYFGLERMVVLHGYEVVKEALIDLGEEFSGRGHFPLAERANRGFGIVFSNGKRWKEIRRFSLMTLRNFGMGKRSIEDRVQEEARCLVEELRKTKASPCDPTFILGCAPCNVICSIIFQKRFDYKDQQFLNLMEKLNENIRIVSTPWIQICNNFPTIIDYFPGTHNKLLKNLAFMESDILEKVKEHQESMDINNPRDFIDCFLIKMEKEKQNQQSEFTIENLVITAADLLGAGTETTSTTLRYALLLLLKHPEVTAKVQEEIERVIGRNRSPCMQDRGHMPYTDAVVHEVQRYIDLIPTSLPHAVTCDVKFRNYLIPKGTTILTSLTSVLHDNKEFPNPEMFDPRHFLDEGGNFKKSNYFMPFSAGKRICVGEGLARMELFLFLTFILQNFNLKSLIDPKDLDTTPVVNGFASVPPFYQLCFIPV
CYP 2B6, sequence (P20813 whole entry): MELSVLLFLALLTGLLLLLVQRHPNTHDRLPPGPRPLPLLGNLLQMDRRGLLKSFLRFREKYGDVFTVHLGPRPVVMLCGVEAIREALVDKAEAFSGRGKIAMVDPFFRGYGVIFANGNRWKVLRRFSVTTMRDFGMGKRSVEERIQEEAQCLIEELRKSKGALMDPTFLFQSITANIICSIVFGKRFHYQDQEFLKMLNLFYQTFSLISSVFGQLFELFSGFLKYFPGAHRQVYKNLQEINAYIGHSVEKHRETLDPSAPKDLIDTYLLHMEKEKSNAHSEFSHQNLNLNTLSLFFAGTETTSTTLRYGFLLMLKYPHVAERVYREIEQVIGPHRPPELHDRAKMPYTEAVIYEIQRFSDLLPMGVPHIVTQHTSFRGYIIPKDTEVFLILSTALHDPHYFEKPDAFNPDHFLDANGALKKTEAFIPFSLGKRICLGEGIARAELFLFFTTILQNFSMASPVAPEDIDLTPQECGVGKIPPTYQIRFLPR
CYP 2D6, sequence (P10635 whole entry): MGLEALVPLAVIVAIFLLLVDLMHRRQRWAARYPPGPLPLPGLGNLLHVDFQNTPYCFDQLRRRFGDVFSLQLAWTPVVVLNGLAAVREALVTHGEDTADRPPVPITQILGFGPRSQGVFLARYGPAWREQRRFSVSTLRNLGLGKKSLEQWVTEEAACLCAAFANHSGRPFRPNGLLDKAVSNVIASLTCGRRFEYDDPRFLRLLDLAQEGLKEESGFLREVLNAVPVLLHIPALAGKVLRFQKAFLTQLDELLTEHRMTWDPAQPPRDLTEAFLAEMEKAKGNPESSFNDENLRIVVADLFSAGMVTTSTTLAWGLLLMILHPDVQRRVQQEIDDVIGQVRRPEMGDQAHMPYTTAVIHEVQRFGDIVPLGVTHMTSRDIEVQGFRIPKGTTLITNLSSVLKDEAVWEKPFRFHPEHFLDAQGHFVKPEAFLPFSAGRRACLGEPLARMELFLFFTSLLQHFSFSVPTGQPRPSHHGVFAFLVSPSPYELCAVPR
CYP 1A2, sequence (P05177 whole entry): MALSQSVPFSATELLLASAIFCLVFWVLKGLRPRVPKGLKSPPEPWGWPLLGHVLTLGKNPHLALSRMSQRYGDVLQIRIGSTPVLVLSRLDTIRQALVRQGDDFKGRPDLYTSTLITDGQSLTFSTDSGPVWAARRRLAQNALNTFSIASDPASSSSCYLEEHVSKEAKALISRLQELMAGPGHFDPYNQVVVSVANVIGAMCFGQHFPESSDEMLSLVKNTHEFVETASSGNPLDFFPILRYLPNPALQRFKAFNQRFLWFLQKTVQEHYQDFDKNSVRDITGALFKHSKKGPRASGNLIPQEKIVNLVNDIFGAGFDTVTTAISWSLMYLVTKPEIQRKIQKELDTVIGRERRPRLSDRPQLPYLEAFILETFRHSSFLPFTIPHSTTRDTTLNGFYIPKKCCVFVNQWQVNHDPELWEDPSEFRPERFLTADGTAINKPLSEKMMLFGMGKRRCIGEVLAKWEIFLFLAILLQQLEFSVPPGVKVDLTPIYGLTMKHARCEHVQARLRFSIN
CYP 2C9, sequence (P11712 whole entry): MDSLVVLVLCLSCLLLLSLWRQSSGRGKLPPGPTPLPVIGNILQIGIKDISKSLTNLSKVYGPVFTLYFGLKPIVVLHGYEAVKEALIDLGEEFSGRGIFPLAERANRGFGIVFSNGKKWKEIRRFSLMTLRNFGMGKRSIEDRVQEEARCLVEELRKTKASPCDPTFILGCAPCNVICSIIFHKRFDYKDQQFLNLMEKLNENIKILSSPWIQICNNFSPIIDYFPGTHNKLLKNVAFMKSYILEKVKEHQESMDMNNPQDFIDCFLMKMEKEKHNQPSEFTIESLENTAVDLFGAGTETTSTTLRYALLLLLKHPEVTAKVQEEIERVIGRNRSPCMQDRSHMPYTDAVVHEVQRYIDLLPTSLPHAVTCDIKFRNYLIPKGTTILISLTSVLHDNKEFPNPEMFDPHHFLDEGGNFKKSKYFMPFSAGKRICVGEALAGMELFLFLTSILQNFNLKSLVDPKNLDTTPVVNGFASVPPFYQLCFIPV

## N#Cc1nn(-c2cc(Br)c(Oc3n[nH]c(=O)c4ccccc34)c(Br)c2)c(=O)[nH]c1=O [CS27109]
NASH mouse model [1]; [11]
  Liver fibrosis area (Sirius Red staining): improving all pathologic features of NASH
  Liver inflammation score (H&E): improving all pathologic features of NASH
  Liver steatosis and ballooning scores (H&E): improving all pathologic features of NASH
NASH mouse model [1]; [12]
  ALT: 68.7 ± 18.8^c U/L
  AST: 113.0 ± 36.2^a U/L
  HDL‐C: 0.665 ± 0.284 mmol/L
  LDL‐C: 0.040 ± 0.026^b mmol/L
  TC: 0.785 ± 0.277 mmol/L
  TG: 0.329 ± 0.341 mmol/L
CYP 2B6
  pIC50: < 5.00
CYP 2C8
  pIC50: < 5.00
CYP 2C9
  pIC50: 5.29
CYP 2C19
  pIC50: < 5.00
CYP 2D6
  pIC50: < 5.00
[2]
  Clint in liver microsomes: 0.83 mL/min/kg
  T1/2 in liver microsomes: >120 min
[3]
  Clint in liver microsomes: 4.24 mL/min/kg
  T1/2 in liver microsomes: >120 min
[4]
  Clint in liver microsomes: 7.72 mL/min/kg
  T1/2 in liver microsomes: >120 min
CYP 1A2
  pIC50: < 5.00
CYP3A4 [5]
  pIC50: < 5.00
NASH mouse model [6]
  Occurrence of hepatocellular carcinoma (mice affected/group): 2/8
CYP3A4 [7]
  pIC50: < 5.00

## Cc1cc(F)c(C(=O)Nc2cccc(-c3nncn3C(C)C)n2)cc1-n1cnc(C2CC2)c1 [GS‐4997, Selonsertib, reference compound]
L02 cells; 0.32–10 μmol/L drug
  Cell protection (cell viability normalized to PA-treated cells): only protected against cell death at lower doses
L02 cells; 5 and 10 μmol/L drug
  Cell viability at high drug doses: reduced cell viability in a dose‐dependent manner
MRC‐5
  Cytotoxicity (cell viability): reduced cell viability at higher doses; also recorded: high‐dose cytotoxicity
CCC‐HEL‐1
  Cytotoxicity (cell viability): reduced cell viability at higher doses
UUO mouse model
  Area of kidney fibrosis (Masson staining): tendency to reduce
  Serum creatinine vs model group: non‐significant tendency to decrease
  Serum urea nitrogen vs model group: significantly reduced
NASH [8]
  Outcome of phase III NASH trial: failed
Diabetic kidney disease
  Outcome of DKD clinical trial: did not meet its primary endpoint
[9]
  CKD-related characteristics and kidney function: barely improved CKD‐related characteristics, but preserved kidney function

## O=C(Nc1cccc(-c2nncn2C2CC2)c1)c1cc(-n2cnc(C3CC3)c2)ccn1 [GS‐444217]
UUO model
  Kidney fibrosis: attenuate kidney fibrosis
DKD
  Glomerular sclerosis progression: halt the progression of glomerular sclerosis
NASH [10]
  NASH symptoms: significantly ameliorated NASH symptoms
